Experimental data as given in patent US20210386779A1, “COMPOSITIONS AND METHODS FOR DIETARY ENHANCEMENT OF IMMUNE SYSTEM FUNCTION” (priority 2020, published 2021).

Experiments:
[1] = Supplement-specific monitoring for side effects and toxicity over the study period; design: species or system human; conditions: in vivo, po
Description: Monitoring tor such side effects is expected to continue over and beyond the period of quina bark extract administration.
It appears to be appropriate to continue monitoring for oncological side effects over and beyond the period of quercetin administration.

[2] = target: SARS-CoV-2 viral S-spike binding to cells (UniProt P0DTC2+Q9BYF1); conditions: supercomputer docking; cited from earlier work
[3] = test system: COVID-19 and other flu-like illnesses (SARS-CoV-2); experiment: 20-week clinical study: test group taking the core formulations monitored for symptoms of flu-like illness, with focus on COVID-19; assay type: in vivo, human; conditions: for prophylactic efficacy against COVID-19 and other flu-like illnesses (conclusion in words): 20-week study; for symptomatic control group subjects (of 12) who had maintained supplementation with this component alone, without other core formulation components: 20 weeks, vitamin C 500-1000 mg daily, vitamin D3 1000-2000 IU daily
Description: From late February/early March 2020, we recommended to patients seen in-office (and to numerous telemedicine patients) and to our staff members to follow a regimen of at least the core formulations. Of in-office patients and staff, 54 subjects started with the study's voluntary OTC regimen and, thereby, constituted the study test group (reduced to 53 subjects after the second study week by a voluntary withdrawal); while 60 declined the regimen—for reasons, when given, involving implementation's complexity and/or effort; and/or indicating barriers to implementation stemming from educational and/or socio-economic background—and constituted the study control group.
Over the study period, we monitored subjects for symptoms of flu-like illness, with an active focus on COVID-19. At the outset of the pandemic, our practice's access to COVID-19 testing was quite limited. At that point, we identified subjects as confirmed COVID-19 cases or, at least, as likely COVID-19 cases upon their earliest presentation of clinical symptoms of COVID-19; or upon their being test-confirmed as COVID cases as documented in locales and practices where testing was available. Asymptomatic/pre-symptomatic subjects—with special note taken of documented, self-reported or likely exposure to diagnosed or suspected COVID-19 cases—as well as subjects presenting symptoms of unspecified flu-like illnesses, were followed for subsequent development of COVID-19 symptoms. As testing became more available, the state/regional protocols were such that we would receive notification of individual ones among our subjects having tested positive, the testing generally conducted by a subject's primary care provider, and the notifications then sent by Ohio health agencies to all the infected patient's physicians.
One dose daily of the full core formulation regimen, as per Table 2.
Over the study period of 20+ weeks, we monitored 113 subjects (104 in-office patients and 9 staff members) for clinical symptoms of flu-like illnesses, with subsequent differential diagnosis (and, when available, with test-confirmation) of each symptomatic subject to distinguish COVID-19 from non-COVID-19 flu-like illness. We also maintained data of reported and/or observed subject exposures to clinical and/or test-confirmed cases of COVID-19.
The OTC regimen undertaken by test group subjects included the core formulations of zinc, zinc ionophores, vitamins and l-lysine, as well as at least some of the methods. […]

Row | Structure (SMILES) | complications, side effects or toxicity observed over the study period [1] | rank for inhibition of SARS-CoV-2 viral S-spike binding to cells among FDA-approved compounds [2] | prophylactic efficacy against COVID-19 and other flu-like illnesses (conclusion in words) [3] | symptomatic control group subjects (of 12) who had maintained supplementation with this component alone, without other core formulation components [3]
1 | O=c1c(O)c(-c2ccc(O)c(O)c2)oc2cc(O)cc(O)c12 [quercetin] | received no reports nor found any clinical signs of quercetin toxicity | fifth out of twenty top performers |  | 
2 | O=C1O[C@H]([C@@H](O)CO)C(O)=C1O [vitamin C] |  |  | relative lack of anti-flu/anti-COVID-19 prophylactic efficacy | at least four
3 | C=C1CC[C@H](O)C/C1=C/C=C1\CCC[C@]2(C)[C@@H]([C@H](C)CCCC(C)C)CC[C@@H]12 [vitamin D3] |  |  | relative lack of anti-flu/anti-COVID-19 prophylactic efficacy | at least three
